{"source": "patent US11419834B2", "about": "“Methods for treating diseases or infections caused by or associated with H. pylori using a halogenated salicylanilide” (Rhode Island Hospital, priority 2019, dated 2022)", "key": {"H. pylori (strain 60190) [1]": {"system": "H. pylori (strain 60190)", "experiment": "Checkerboard synergy assay (FICI)", "format": "cell-based, Helicobacter pylori", "details": "for FICI value Niclosamide: test compound in combination with niclosamide", "procedure": "References to “synergy” of the halogenated salicylanilide with other therapeutic agents described herein refer to an activity which is greater than the sum of the individual agents used alone. The degree of antimicrobial synergy may be assessed by calculating the fractional inhibitory concentration index (FICI) using the checkerboard assay described in the Examples herein. For two agents A and B, the FICI is calculated as: FICI=MICA-B in combination/(MICA alone+MICB alone) Synergy occurs when the FICI is ≤0.5; partial synergy for 0.5≤FICI≤1.0; no interaction […]; and antagonism FICI >4.0.\nAntibacterial synergy was tested using the checkerboard assay using the method described in Zheng Z et al. (Antimicrob. Agents Chemother. 2017 July; 61(7)).\nNiclosamide was combined with antibiotics and proton pump inhibitors (PPIs). Cultures of H. pylori (strain 60190) were adjusted to OD600=0.06 and added to compound pairs that had been serially diluted in the same 96-well plates, vertically for one compound and horizontally for the other. Assays were carried out in triplicate as described in the antibacterial susceptibility assay described above. The combinatorial inhibitory concentration was indicated by the fractional inhibitory concentration index (FICI): FICI=MICA combination/MICA alone+MICB combination/MICB alone Paired combinations of compounds and their observed FICI are listed in Table 4. Synergistic activity, where the combined antibacterial effect of the 2 antimicrobial agents is more than the sum of their effects alone, is defined by FICI 0.5, antagonism by FICI >4.0 and ‘no interaction’ by FICI >0.5-4.0."}, "H. pylori bacteria": {"system": "H. pylori bacteria", "experiment": "Scanning electron microscopy of morphology", "format": "cell-based, Helicobacter pylori"}, "H. pylori strain 60190": {"system": "H. pylori strain 60190", "experiment": "Minimum bactericidal concentration (plating from MIC assay)", "format": "cell-based, Helicobacter pylori"}, "[2]": {"system": "H. pylori reference strain 60190 (ATCC 49503)", "experiment": "Broth microdilution assay, MIC", "format": "cell-based", "details": "Helicobacter pylori, ATCC49503, 72 h; H. pylori strain 60190; Müller-Hinton broth + 10% FBS, 3 days"}, "[3]": {"system": "H. pylori bacteria (strain 60190)", "experiment": "Multi-step mutation frequency (serial passage resistance study)", "format": "cell-based, Helicobacter pylori", "details": "for increase in MIC during continuous passage: passaged sequentially over 30 days", "procedure": "To determine whether H. pylori can develop resistance against niclosamide, bacterial cells were suspended in MHB with 10% FBS at OD600=0.06 in the presence of serially diluted niclosamide and incubated, as described in the antibiotic susceptibility assays sub-section. The standard antibiotics amoxicillin and clarithromycin were used as controls. From the highest drug concentration allowing visible growth at sub-MIC concentration, aliquots were diluted (1:40) into fresh medium. These were used to inoculate the second set of serial drug dilutions as described by Dalhoff et al. (Clin Infect Ds. 2001 Mar. 15; 32 Suppl, 1:S16-22). After a 3-day incubation, H. pylori bacteria (strain 60190) were passaged sequentially over 30 days and the OD was recorded."}, "H. Pylori 51932": {"system": "H. Pylori 51932", "experiment": "Broth microdilution assay, MIC", "format": "cell-based", "details": "Helicobacter pylori; strain H. Pylori 51932"}, "H. Pylori 49503": {"system": "H. Pylori 49503", "experiment": "Broth microdilution assay, MIC", "format": "cell-based", "details": "Helicobacter pylori; strain H. Pylori 49503"}, "H. Pylori 43504": {"system": "H. Pylori 43504", "experiment": "Broth microdilution assay, MIC", "format": "cell-based", "details": "Helicobacter pylori; strain H. Pylori 43504"}, "H. pylori (strain 60190) [4]": {"system": "H. pylori (strain 60190)", "experiment": "Effect of pH on MIC (broth microdilution)", "format": "cell-based, Helicobacter pylori", "details": "pH 7.0 to 5.2", "procedure": "The pH was adjusted to acidic condition with 1 N HCl. The minimal bactericidal concentration (MBC) was determined by plating 5 μL of broth culture from the MIC assay onto Müller-Hinton agar (BD Biosciences) supplemented with 10% FBS. After 72 h, the lowest concentration at which colonies were not observed was reported as the MBC."}, "[5]": {"system": "AGS cells invaded by H. pylori", "experiment": "Invasion, gentamicin protection assay", "format": "cell-based, Helicobacter pylori", "details": "0.1 μg/mL, 20 hours, AGS cells", "procedure": "(§1) The AGS (Gastric adenocarcinoma cell lines) cell line was used to examine inhibition of adhesion and invasion of H. pylori (strain 60190) by niclosamide, as described by Schmitt et al. (Front Cell Infect Microbiol. 2013; 3:93). The AGS cells were grown in Dulbecco's Modified Eagle Medium (DMEM, ex. Gibco), supplemented with 10% fetal bovine serum (Gibco) and 1% penicillin/streptomycin (Gibco) and maintained at 37° C. in 5% C02. Then, 5×10^5 cells in antibiotic and serum-free DMEM were seeded in 6-well plates 24 hours prior to infection. H. pylori bacteria at a multiplicity of infection (MOI)=100 were added and allowed to adhere to the surface of the AGS cells. Planktonic bacteria were removed after 2 hours and DMEM with niclosamide (2×MIC) was then added to the wells containing the AGS. The mammalian cells were lysed by 0.1% saponin after 20 hours of incubation and the adhered bacteria were then serially diluted, plated in Brucella agar supplemented with 10% FBS, and incubated as described above. A control arm of DMSO and a comparator using amoxicillin at a concentration of 0.1 μg/mL (10×MIC) was also assessed. […]"}, "[6]": {"system": "H. pylori (strain 60190) adhered to AGS cells", "experiment": "Adhesion of H. pylori to AGS cells", "format": "cell-based, Helicobacter pylori", "details": "0.1 μg/mL (10×MIC)", "procedure": "as §1"}, "[7]": {"system": "IL-8 secretion from MKN-28 cells co-cultured with H. pylori", "experiment": "IL-8 secretion, real-time RT-PCR", "format": "cell-based", "details": "10× MIC, H. pylori infected MKN-28 cells", "procedure": "Real-Time (RT-PCR) was carried out to determine whether niclosamide has an inhibitory role in IL-8 secretion. MKN-28 cells were co-cultured with H. pylori (MOI=100) in the presence or absence of a test compound. At 24 hours, RNA was isolated from the infected host cells. cDNA was synthesized using the Verso cDNA (Invitrogen) synthesis kit according to manufacturer instructions. Quantitative real-time reactions were carried out in a Bio-Rad iTaq universal SYBR (Bio-Rad, Hercules, Calif. USA) one-step kit and a CFX98 real-time PCR cycler as described by Zheng et al. (Future Med. Chem. 2018, February; 10(3):283-296). The relative gene expression was calculated from Cq values using a ΔΔCq method."}, "[8]": {"details": "Helicobacter pylori, H. pylori strain 60190, read-out: MBC"}}, "note": "Where two headings read alike, the source gives them in different places."}
{"smiles": "Cc1ncc([N+](=O)[O-])n1CCO", "note": "[Metronidazole, metronidazole]", "values": [{"measurement": "interaction with niclosamide", "setting": "H. pylori (strain 60190) [1]; combination with niclosamide", "result": "partially synergistic"}, {"measurement": "FICI value Niclosamide", "setting": "H. pylori (strain 60190) [1]", "result": 0.75}]}
{"smiles": "N#CC(C#N)=NNc1cccc(Cl)c1", "note": "[CCCP, carbonyl cyanide m-chlorophenylhydrazone]", "values": [{"measurement": "morphology by SEM", "setting": "H. pylori bacteria; 10 μM", "result": "morphological changes and decreased cell size"}]}
{"smiles": "Cc1cc(C(C#N)c2ccc(Cl)cc2)c(Cl)cc1NC(=O)c1cc(I)cc(I)c1O", "note": "(stereo not shown) [Closantel, closantel]", "values": [{"measurement": "MBC", "setting": "H. pylori strain 60190; H. pylori strain 60190", "result": 16.0, "unit": "µg/mL"}, {"measurement": "MBC", "setting": "H. pylori strain 60190; [8]", "result": 16, "unit": "µg/mL"}, {"measurement": "MIC", "setting": "[2]", "result": 16, "unit": "µg/mL"}]}
{"smiles": "CC[C@H]1OC(=O)[C@H](C)[C@@H](O[C@H]2C[C@@](C)(OC)[C@@H](O)[C@H](C)O2)[C@H](C)[C@@H](O[C@@H]2O[C@H](C)C[C@H](N(C)C)[C@H]2O)[C@](C)(OC)C[C@@H](C)C(=O)[C@H](C)[C@@H](O)[C@]1(C)O", "note": "[Clarithromycin, clarithromycin]", "values": [{"measurement": "change in MIC through at least 10 passages", "setting": "[3]", "result": 2, "unit": "fold"}, {"measurement": "exposure time after which MIC increased", "setting": "[3]; continuous exposure, 30 day study", "result": "> 24", "unit": "days"}, {"measurement": "increase in MIC during continuous passage", "setting": "[3]", "result": 4, "unit": "fold"}, {"measurement": "MBC", "setting": "H. pylori strain 60190; [8]", "result": 0.25, "unit": "µg/mL"}, {"measurement": "MIC", "setting": "H. Pylori 51932", "result": 0.005, "unit": "µg/mL"}, {"measurement": "MIC", "setting": "H. Pylori 49503", "result": 0.0025, "unit": "µg/mL"}, {"measurement": "FICI value Niclosamide", "setting": "H. pylori (strain 60190) [1]", "result": 1.0}, {"measurement": "MIC", "setting": "H. Pylori 43504", "result": 0.005, "unit": "µg/mL"}, {"measurement": "MIC", "setting": "[2]", "result": 0.0025, "unit": "µg/mL"}, {"measurement": "change of MIC at acidic pH compared to pH 7.0", "setting": "H. pylori (strain 60190) [4]", "result": "increased"}]}
{"smiles": "CC1(C)S[C@@H]2[C@H](NC(=O)[C@H](N)c3ccc(O)cc3)C(=O)N2[C@H]1C(=O)O", "note": "[Amoxicillin, amoxicillin]", "values": [{"measurement": "change in MIC through at least 10 passages", "setting": "[3]", "result": 2, "unit": "fold"}, {"measurement": "increase in MIC during continuous passage", "setting": "[3]", "result": 2, "unit": "fold"}, {"measurement": "MBC", "setting": "H. pylori strain 60190; [8]", "result": 0.5, "unit": "µg/mL"}, {"measurement": "effect on intracellular bacteria", "setting": "[5]", "result": "eliminated bacteria completely"}, {"measurement": "effect on bacterial adhesion", "setting": "[6]", "result": "eliminated bacterial adhesion completely"}, {"measurement": "MIC", "setting": "H. Pylori 51932", "result": 0.01, "unit": "µg/mL"}, {"measurement": "effect on IL-8 secretion", "setting": "[7]", "result": "inhibited IL-8 secretion"}, {"measurement": "MIC", "setting": "H. Pylori 49503", "result": 0.01, "unit": "µg/mL"}, {"measurement": "FICI value Niclosamide", "setting": "H. pylori (strain 60190) [1]", "result": 2.0}, {"measurement": "MIC", "setting": "H. Pylori 43504", "result": 0.03, "unit": "µg/mL"}, {"measurement": "MIC", "setting": "[2]", "result": 0.01, "unit": "µg/mL"}, {"measurement": "change of MIC at acidic pH compared to pH 7.0", "setting": "H. pylori (strain 60190) [4]", "result": "increased"}, {"measurement": "morphology by SEM", "setting": "H. pylori bacteria; 0.1 μg/mL (10×MIC)", "result": "morphological changes and decreased cell size"}]}
{"smiles": "O=C(Nc1ccc(Oc2ccc(Cl)cc2)c(Cl)c1)c1cc(I)cc(I)c1O", "note": "[Rafoxanide, rafoxanide]", "values": [{"measurement": "MBC", "setting": "H. pylori strain 60190; Helicobacter pylori, 60190", "result": 8, "unit": "µg/mL"}]}
{"smiles": "COc1ccc2[nH]c([S+]([O-])Cc3ncc(C)c(OC)c3C)nc2c1", "note": "(stereo not shown) [Omeprazole, omeprazole]", "values": [{"measurement": "FICI value Niclosamide", "setting": "H. pylori (strain 60190) [1]", "result": 0.625}]}
{"smiles": "O=C(Nc1cc(Cl)cc(Cl)c1O)c1c(O)c(Cl)cc(Cl)c1Cl", "note": "[Oxyclozanide, oxyclozanide]", "values": [{"measurement": "MBC", "setting": "H. pylori strain 60190; [8]", "result": 4, "unit": "µg/mL"}, {"measurement": "MIC", "setting": "[2]", "result": 2, "unit": "µg/mL"}]}
{"smiles": "COc1ccnc(C[S+]([O-])c2nc3ccc(OC(F)F)cc3[nH]2)c1OC", "note": "(stereo not shown) [Pantoprazole, pantoprazole]", "values": [{"measurement": "FICI value Niclosamide", "setting": "H. pylori (strain 60190) [1]", "result": 0.75}]}
